Experimental data taken from ChEMBL document CHEMBL3351556, “Thee-component, one-pot synthesis of hexahydroazepino[3,4-b]indole and tetrahydro-1H-pyrido[3,4-b]indole derivatives and evaluation of their cytotoxicity” (Bioorg Med Chem Lett, 2014).

Columns and labels:
Format in all cases: functional, cell-based
[1] = tested on: DU-145; experiment: Antiproliferative activity against human DU145 cells after 48 hrs by MTT/quantitative colorimetric method; conditions: DU-145, 48 h
[2] = tested on: HeLa; experiment: Antiproliferative activity against human HeLa cells after 48 hrs by MTT/quantitative colorimetric method
[3] = tested on: A549; experiment: Antiproliferative activity against human A549 cells after 48 hrs by MTT/quantitative colorimetric method; conditions: A549, 48 h
[4] = tested on: MCF7; experiment: Antiproliferative activity against human MCF7 cells after 48 hrs by MTT/quantitative colorimetric method; conditions: MCF7, 48 h

| IC50 [1] | IC50 [2] | IC50 [3] | IC50 [4] | Compound |
| --- | --- | --- | --- | --- |
| 21 µM | 13 µM | 18 µM | 18 µM | Cn1c2c(c3ccccc31)CCC(=O)N(c1ccc(Cl)cc1)C2C(=O)NC(C)(C)C (configuration not stated) |
| 63 µM | 95 µM | 49 µM | 87 µM | Cc1ccc(C)c(N2C(=O)Cc3c(n(C)c4ccccc34)C2C(=O)NC(C)(C)C)c1 (configuration not stated) |
| > 100 µM | 25 µM | 85 µM | 95 µM | Cn1c2c(c3ccccc31)CC(=O)N(c1cccc(F)c1)C2C(=O)NC1CCCCC1 (configuration not stated) |
| 56 µM | 67 µM | 35 µM | > 100 µM | Cn1c2c(c3ccccc31)CCC(=O)N(c1ccc(F)c(Cl)c1)C2C(=O)NC(C)(C)C (configuration not stated) |
| 45 µM | 49 µM | > 100 µM | 52 µM | Cn1c2c(c3ccccc31)CC(=O)N(c1ccc(Br)cc1)C2C(=O)NC1CCCCC1 (configuration not stated) |
| > 100 µM | > 100 µM | > 100 µM | 95 µM | Cc1ccc(C)c(N2C(=O)Cc3c(n(C)c4ccccc34)C2C(=O)NC2CCCCC2)c1 (configuration not stated) |
| 42 µM | 55 µM | 59 µM | > 100 µM | Cn1c2c(c3ccccc31)CC(=O)N(c1ccc(Cl)cc1)C2C(=O)NC1CCCCC1 (configuration not stated) |
| 13 µM | 12 µM | 27 µM | 29 µM | Cn1c2c(c3ccccc31)CCC(=O)N(c1ccc(Cl)cc1)C2C(=O)NC1CCCCC1 (configuration not stated) |
| 90 µM | 48 µM | 59 µM | 50 µM | Cn1c2c(c3ccccc31)CCC(=O)N(c1ccc(F)cc1)C2C(=O)NC1CCCCC1 (configuration not stated) |
| 78 µM | 26 µM | > 100 µM | 61 µM | Cn1c2c(c3ccccc31)CC(=O)N(c1ccc(F)cc1)C2C(=O)NC(C)(C)C (configuration not stated) |
| > 100 µM | > 100 µM | > 100 µM | > 100 µM | Cc1ccc(C)c(N2C(=O)CCc3c(n(C)c4ccccc34)C2C(=O)NC2CCCCC2)c1 (configuration not stated) |
| 52 µM | 44 µM | > 100 µM | 94 µM | Cn1c2c(c3ccccc31)CCC(=O)N(c1cccc(F)c1)C2C(=O)NC1CCCCC1 (configuration not stated) |
| > 100 µM | 83 µM | 63 µM | 96 µM | Cn1c2c(c3ccccc31)CC(=O)N(c1ccc(Cl)cc1)C2C(=O)NC(C)(C)C (configuration not stated) |
| 82 µM | > 100 µM | > 100 µM | 54 µM | Cn1c2c(c3ccccc31)CCC(=O)N(c1ccc(F)c(Cl)c1)C2C(=O)NC1CCCCC1 (configuration not stated) |
| 47 µM | 11 µM | 62 µM | 50 µM | Cn1c2c(c3ccccc31)CC(=O)N(c1ccc(F)cc1)C2C(=O)NC1CCCCC1 (configuration not stated) |
| 70 µM | 46 µM | > 100 µM | 50 µM | Cn1c2c(c3ccccc31)CCC(=O)N(c1ccc(F)cc1)C2C(=O)NC(C)(C)C (configuration not stated) |
| 55 µM | 63 µM | > 100 µM | 78 µM | Cn1c2c(c3ccccc31)CCC(=O)N(c1ccc(Br)cc1)C2C(=O)NC1CCCCC1 (configuration not stated) |
| 95 µM | > 100 µM | 80 µM | > 100 µM | Cn1c2c(c3ccccc31)CC(=O)N(c1ccc(F)c(Cl)c1)C2C(=O)NC(C)(C)C (configuration not stated) |
